Data: the supplement of paper PMC10307832

Tests used:
Assay in all cases: relative viability (nuclei count vs DMSO), 5 days (fraction); higher = more cells survive
[1] = compound: C1COCCN1C2=NC(=NC3=C2OC4=C3C=CC=N4)C5=CC(=CC=C5)NC(=O)C6=CN=C(C=C6)N + CS(=O)(=O)N1CCN(Cc2cc3nc(-c4cccc5[nH]ncc45)nc(N4CCOCC4)c3s2)CC1 [Pictilisib] (partner 1 µM)
Outline: (§1)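 Dosing by pin tool came one day after lung cancer cell lines were seeded in 1536-well plates, using either one drug or a fixed anchor-drug dose plus five library-drug doses (not always all listed) in √10 steps. After 5 days, nuclei were counted on 4× images. Relative viability is treated-well nuclei count divided by vehicle-well nuclei count, and values are medians of duplicate plates.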

[2] = compound: C1COCCN1C2=NC(=NC3=C2OC4=C3C=CC=N4)C5=CC(=CC=C5)NC(=O)C6=CN=C(C=C6)N + CC(=O)c1c(C)c2cnc(Nc3ccc(N4CCNCC4)cn3)nc2n(C2CCCC2)c1=O [Palbociclib] (partner 0.5 µM)
Outline: as §1

[3] = compound: CN1CCC(CNc2ccc3ncc(-c4cccc(OC(F)(F)F)c4)n3n2)CC1 [SGI-1776] + O=C(c1cc(Cc2n[nH]c(=O)c3ccccc23)ccc1F)N1CCN(C(=O)C2CC2)CC1 [Olaparib] (partner 8 µM)
Outline: as §1

[4] = compound: CN1CCC(CNc2ccc3ncc(-c4cccc(OC(F)(F)F)c4)n3n2)CC1 [SGI-1776] + CS(=O)(=O)CCNCc1ccc(-c2ccc3ncnc(Nc4ccc(OCc5cccc(F)c5)c(Cl)c4)c3c2)o1 [Lapatinib] (partner 2 µM)
Outline: as §1

Cell Line | relative viability ([1]; first compound 0.02 µM) | relative viability ([1]; first compound 0.06325 µM) | relative viability ([1]; first compound 0.2 µM) | relative viability ([1]; first compound 0.6325 µM) | relative viability ([1]; first compound 2 µM) | relative viability ([2]; first compound 0.02 µM) | relative viability ([2]; first compound 0.06325 µM) | relative viability ([2]; first compound 0.2 µM) | relative viability ([2]; first compound 0.6325 µM) | relative viability ([2]; first compound 2 µM) | relative viability ([3]; first compound 0.08 µM) | relative viability ([3]; first compound 0.8 µM) | relative viability ([3]; first compound 2.53 µM) | relative viability ([3]; first compound 8 µM) | relative viability ([4]; first compound 0.08 µM) | relative viability ([4]; first compound 0.8 µM) | relative viability ([4]; first compound 2.53 µM) | relative viability ([4]; first compound 8 µM)
LXF-289 | 0.782 | 0.861 | 0.703 | 0.758 | 0.602 | 0.603 | 0.604 | 0.623 | 0.612 | 0.384 | 0.966 | 1.12 | 1.1 | 1.03 | 0.945 | 0.941 | 0.893 | 0.895
PC-3 [JPC-3] | 0.754 | 0.831 | 0.739 | 0.798 | 0.629 | 0.506 | 0.512 |  | 0.592 | 0.495 | 1.13 | 1.14 | 1.11 | 0.797 | 0.441 | 0.466 | 0.478 | 0.371
NCI-H2087 | 0.881 | 0.848 | 0.876 | 0.807 | 0.642 | 0.211 | 0.223 | 0.235 | 0.219 | 0.194 | 0.601 | 0.637 | 0.727 | 0.521 | 1.1 | 1.03 | 1.09 | 1.13
NCI-H2170 | 0.328 | 0.316 | 0.299 | 0.299 | 0.304 | 0.405 | 0.395 | 0.407 | 0.422 | 0.275 | 0.638 | 0.686 | 0.651 | 0.614 | 0.263 | 0.269 | 0.275 | 0.275
HCC-78 | 0.179 | 0.211 | 0.289 | 0.16 | 0.0668 | 0.48 | 0.484 | 0.476 | 0.427 | 0.378 | 0.891 | 0.91 | 0.801 | 0.95 | 0.848 | 0.7 | 0.783 | 0.698
NCI-H1395 | 0.699 | 0.604 | 0.569 | 0.587 | 0.57 | 0.602 | 0.597 | 0.617 | 0.592 | 0.645 | 0.473 | 0.452 | 0.438 | 0.347 | 1.16 | 1.04 | 1.07 | 0.781
NCI-H2228 | 0.486 | 0.346 | 0.38 | 0.234 | 0.256 | 0.934 | 0.817 | 0.407 | 0.64 | 0.621 | 0.671 | 0.762 | 0.548 | 0.396 | 0.816 | 1.21 | 0.927 | 0.415
H3255 | 0.417 | 0.495 | 0.458 | 0.505 | 0.432 | 0.308 | 0.308 | 0.306 | 0.308 | 0.305 | 0.563 | 0.595 | 0.646 | 0.529 | 0.285 | 0.33 | 0.259 | 0.198
HCC-15 | 0.735 | 0.76 | 0.713 | 0.742 | 0.527 | 0.742 | 0.775 | 0.67 | 0.682 | 0.574 | 0.717 | 0.759 | 0.755 | 0.687 | 0.821 | 0.882 | 0.933 | 0.786
NCI-H727 | 0.298 | 0.335 | 0.342 | 0.412 | 0.285 | 0.579 | 0.592 | 0.613 | 0.666 | 0.77 | 0.69 | 0.639 | 0.659 | 0.679 | 0.933 | 1.1 | 0.826 | 0.793
NCI-H2023 | 0.273 | 0.211 | 0.216 | 0.23 | 0.193 | 0.378 | 0.384 | 0.316 | 0.256 | 0.172 | 0.499 | 0.516 | 0.51 | 0.347 | 0.918 | 1.21 | 1.04 | 0.219
HCC-44 | 0.508 | 0.607 | 0.65 | 0.506 | 0.399 | 0.952 | 0.987 | 0.96 | 1.01 | 1.01 | 0.998 | 0.973 | 0.89 | 0.984 | 1.04 | 1.15 | 1.01 | 0.962
COR-L23 | 1.02 | 1.21 | 0.845 | 0.843 | 0.574 | 0.262 | 0.314 | 0.3 | 0.307 | 0.229 | 0.345 | 0.396 | 0.377 | 0.275 | 1.1 | 0.9 | 0.914 | 0.922
EMC-BAC-2 | 0.495 | 0.526 | 0.516 | 0.523 | 0.465 | 0.54 | 0.545 | 0.501 | 0.498 | 0.456 | 0.504 | 0.506 | 0.509 | 0.452 | 0.912 | 0.902 | 0.836 | 0.849
LCLC-97TM1 |  | 0.173 | 0.217 | 0.235 | 0.184 | 0.226 | 0.26 | 0.236 | 0.323 | 0.162 | 0.421 | 0.421 | 0.419 | 0.439 | 1 | 0.79 | 1.14 | 0.95
LK-2 | 0.64 | 0.444 | 0.621 | 0.477 | 0.612 | 0.71 | 0.646 | 0.82 | 0.501 | 0.356 | 0.783 | 0.768 | 0.717 | 0.579 | 1.13 | 1.06 | 0.781 | 0.75
NCI-H3122 | 0.621 | 0.588 | 0.531 | 0.515 | 0.451 | 0.182 | 0.187 | 0.164 | 0.186 | 0.16 | 0.688 | 0.697 | 0.62 | 0.647 | 0.964 | 1.05 | 1.07 | 0.988
NCI-H2126 | 0.455 | 0.524 | 0.486 | 0.521 | 0.442 | 0.297 | 0.367 | 0.345 | 0.388 | 0.36 | 0.99 | 0.936 | 0.911 | 0.91 | 0.72 | 0.742 | 0.772 | 0.71
